From patent US20010049389A1, “Arthropod-controlling composition” (priority 2000, published 2001)

Key:
Assay type in all cases: in vivo
[1] = tested on: adult smokybrown cockroaches (Periplaneta fuliginosa); experiment: Test Example 4: smoking formulation in 28 m^3 chamber, smokybrown cockroaches; conditions: 10 g smoking (Preparation example 25) in 28 m^3 chamber
Excerpt: (§1) In a test chamber of 3 m×4 m and 2.3 m in height (28 m^3), two plastic cups were put at two corners, wherein each cup has ten (5 males and 5 females) adult German cockroaches (Blattella germanica) therein. Ten grams (10 g) of the smoking obtained in Preparation example 25 and 50g of magnesium oxide were charged into each of the cells in an aluminum container having an aluminum wall. The cell charged magnesium oxide has small holes. The aluminum container was dipped into water in the plastic container set in the test chamber. The smoking was heated to release the vaporized active ingredient by the reaction heats of magnesium oxide with water. After 2 hours, knock-down percentage was observed. Further, the cockroaches were transferred to a clean plastic cup and given foods and water. The mortality was observed after 7 days.
(§2) Furthermore, the same tests were performed except that six (3 males and 3 females) adult smokybrown cockroaches (Periplaneta fuliginosa) and six (3 males and 3 females) adult American cockroaches (Periplaneta americana) were used in place of ten German cockroaches.

[2] = tested on: female adult common mosquitoes (Culex pipiens pallens); experiment: Test Example 2: oil solution spray in glass chamber, knock-down of common mosquitoes; conditions: 0.7 ml of 0.5% oil solution sprayed in 0.34 m^3 glass chamber, two repetitions
Description: (§3) Ten (5 males and 5 females) adult houseflies (Musca domestica) were released in a glass chamber (70 cm cube, capacity: 0.34 m^3). Seven-tenth milliliter (0.7 ml) of the oil solution obtained in Preparation example 9 was applied into the chamber with a spray gun at a pressure of 0.9 kg/cm^2. Fifteen minutes after spraying, the knocked-down houseflies were counted. Reference compound was also tested.
The same procedure was performed as in Test example 1 except that ten female adult common mosquitoes (Culex pipiens pallens) in place of houseflies were used. As a result of two repetitions, the knock-down percentage at 15 minutes after spraying was 100%.

[3] = tested on: adult houseflies (Musca domestica); experiment: Test Example 1: oil solution spray in glass chamber, knock-down of houseflies; conditions: 0.7 ml of 0.5% oil solution (Preparation example 9) sprayed in 0.34 m^3 glass chamber
Description: as §3

[4] = tested on: whiteflies (Bemisia argentifolii); experiment: Test Example 16: foliar spray on cabbage, whiteflies; conditions: 500 ppm dilution of flowable (Preparation example 7), 30 ml sprayed, after 6 days
Description: About 50 whiteflies (Bemisia argentifolii) were put on a cabagge leaf (in first-leaf stage) grown in a 90 ml plastic cup.
The formulation obtained in Preparation example 7 was diluted with water containing a spreading agent (Tokurino produced by Nihon Nohyaku Co.) to make the concentration of the Pyrone Compound to 500 ppm. Thirty milliliters (30 ml) of the dilution were sprayed to the cabbage (in first-leaf stage) and air-dried. The plastic pot was allowed to stand at 25±2° C. in a greenhouse. After 6 days, the mortality was 90% or more.

[5] = tested on: adult American cockroaches (Periplaneta americana); experiment: Test Example 4: smoking formulation in 28 m^3 chamber, American cockroaches; conditions: 10 g smoking (Preparation example 25) in 28 m^3 chamber
Excerpt: as §1, §2

[6] = tested on: adult German cockroaches (Blattella germanica); experiment: Test Example 4: smoking formulation in 28 m^3 chamber, German cockroaches; conditions: 10 g smoking (Preparation example 25) in 28 m^3 chamber
Excerpt: as §1

[7] = tested on: adult copra mites (Tyrophagus putrescentiae); experiment: Test Example 11: treated drawing paper, copra mites; conditions: drawing paper 800 mg/m^2, 25° C., 75% humidity, 24 hours
Description: (§4) On a black drawing paper having 38 mm in diameter, 0.2 ml of an acetone solution of the Pyrone Compound was added dropwise and air-dried. The treated dosage was 800 mg/m^2. The drawing paper was set on an aluminum plate having 38 mm in diameter and adhesives were put on the edge to prevent for tested mites to escape. About 30 adult copra mites (Tyrophagus putrescentiae) were released on the drawing paper and kept at 25° C. and 75% of humidity for 24 hours. After that, the mortality was observed. The result was 93%.

[8] = tested on: adult pill bugs (Armadillidium vulgare); experiment: Test Example 12: oil-based aerosol spray, pill bugs; conditions: about 450 mg of 1.0% oil-based aerosol sprayed, after 3 days
Description: According to Preparation examples 10-14, 1.0% oil-based aerosol of the Pyrone Compound was obtained. A container (8.75 cm in diameter, 7.5 cm in height, bottom covered 16-mesh iron net and inside wall painted butter for preventing tested pill bugs to escape) having 5 adult pill bugs (Armadillidium vulgare) therein was set on the bottom center of a glass cylinder having 20 cm in diameter and 60 cm in height. About 450 mg of the above oil-based aerosol were sprayed to the pill bugs from the upper part of the cylinder. After 30 seconds, the pill bugs were taken out and put into a clean plastic cup having soil and dead leaves therein. The pill bugs were given food and water and observed after 3 days. The tests were repeated twice. The mortality was 100%. Reference compound was also tested and the mortality was 40%.

[9] = tested on: adult American house dust mites (Dermatophagoides farinae); experiment: Test Example 10: treated drawing paper, American house dust mites; conditions: drawing paper 800 mg/m^2, 25° C., 65% humidity, 24 hours
Description: as §4, with “American house dust” for “copra”, “(Dermatophagoides farinae)” for “(Tyrophagus putrescentiae)”, “65%” for “75%”, “100%.” for “93%.”

[10] = tested on: termites (Coptotermes formosanus); experiment: Test Example 9: treated soil after 3 months storage, termites; conditions: 10 ml of 0.5% (w/w) solution in 200 g soil, kept 3 months at 40° C. in the dark, after 10 days
Description: The Pyrone Compound was dissolved in water to give a 10 ml solution having 0.5% (w/w) of a concentration. The solution was mixed with 200 g of soil and air-dried. After keeping for 3 months at 40° C. and in the dark, about 10 g of the soil were put on a plastic Petri dish having 9 cm in diameter. The soil was wetted with distilled water and 10 termites (Coptotermes formosanus) were released thereon. After 10 days, the termites were observed and the percent moribund was 100%.

[11] = tested on: 3-instar larvae of diamondback moth (Plutella xylostella); experiment: Test Example 18: treated cabbage leaf disc, feeding damage by diamondback moth; conditions: 50 μg on cabbage leaf disc of 1 cm diameter, after 24 hours
Description: A methanol solution (50 μg/20 μl) of the Pyrone Compound was prepared. The solution (20 μl) was painted on a cut leaf disc of cabbage (1 cm in diameter). After vaporizing methanol, the leaf disc was put on a filter paper, which was wet with 1 ml of water, in Petri dish making the painted surface upside. Two 4-instar larvae of tobacco cutworm (Spodoptera litura) were put in the Petri dish. After 24 hours, the damage of the leaf disc was observed and compared with the test result of the non-treated disc. The tests were repeated 5 times.
The same procedure was performed as in Test example 17 except that five 3-instar larvae of diamondback moth (Plutella xylostella) was used in place of tobacco cutworm (Spodoptera litura).

## Cc1cc(O)c(C(=O)CC(C)C)c(=O)o1 [The Pyrone Compound]
[1]; after 2 hours
  Knock-down percentage (%): 100%
[1]; after 7 days
  Mortality (%): 100%
[2]
  knock-down percentage at 15 minutes after spraying: 100%
[3]
  Knock-down percentage (%) 15 min. after spraying: 95%
[4]
  mortality: ≥ 90%
[5]; after 2 hours
  Knock-down percentage (%): 100%
[5]; after 7 days
  Mortality (%): 75%
[6]; after 2 hours
  Knock-down percentage (%): 100%
[6]; after 7 days
  Mortality (%): 100%
[7]
  mortality: 93%
[8]
  mortality: 100%
[9]
  mortality: 100%
[10]
  percent moribund: 100%
[11]
  damage of the leaf disc compared with the non-treated disc: clearly smaller
